Experimental data reported in patent publication US20080014264A1, “NOVEL PHARMACEUTICAL COMPOSITIONS COMPRISING LEVETIRACETAM” (UCB, S.A., priority 2006, published 2008).

What was measured:
[1] = A. J. Gower et al., Eur. J. Pharmacol., 222, 1992; cited from earlier work
[2] = Solubility of the active ingredient; assay type: physicochemical
Source text: In fact levetiracetam is a very soluble active ingredient, so it is difficult to slow down the release. Moreover another problem consists in the reduction of the release rate, while keeping a reasonable size for a high dose of very soluble active ingredient.

| SMILES | activity in the treatment of epilepsy [1] | solubility [2] |
| --- | --- | --- |
| CC[C@H](C(N)=O)N1CCCC1=O [(R)-(+)-alpha-ethyl-2-oxo-1-pyrrolidine acetamide] | completely lacks activity | – |
| CC[C@@H](C(N)=O)N1CCCC1=O [levetiracetam, (S)-(−)-alpha-ethyl-2-oxo-1-pyrrolidine acetamide] | – | very soluble |
